Assay results reported in DBAASP.
In brackets after ≈: the same amount, converted by molar mass.

Experiments:
Test in all cases: ≥ marks a high value that may be exact or a test limit, other limits are often not marked, values filed in µg/mL are converted to µM
Escherichia coli = test system: Escherichia coli
Staphylococcus aureus = test system: Staphylococcus aureus
[1] = test system: Escherichia coli ATCC 25922
[2] = test system: Staphylococcus aureus ATCC 25923
[3] = test system: Pseudomonas aeruginosa ATCC 27853
[4] = test system: Staphylococcus epidermidis ATCC 12228

SMILES | MIC [1] [µM] | MIC [2] [µM] | MIC [3] [µM] | further results
CC[C@H](C)[C@H](NC(=O)[C@@H](NC(=O)[C@H](Cc1ccccc1)NC(=O)[C@H](CCCCN)NC(=O)[C@H](C)NC(=O)[C@H](CC(C)C)NC(=O)[C@H](CCCCN)NC(=O)CNC(=O)[C@H](CC(C)C)NC(=O)[C@@H](NC(=O)[C@@H](NC(=O)CNC(=O)[C@H](C)NC(=O)[C@H](C)NC(=O)[C@@H](NC(=O)[C@H](C)NC(=O)[C@H](CCSC)NC(=O)CN)[C@@H](C)O)[C@@H](C)O)[C@@H](C)O)C(C)C)C(=O)NCC(=O)N[C@@H](C)C(=O)N[C@H](C(N)=O)C(C)C [GMATAAGTTLGKLAKFVIGAV] |  |  |  | MIC (Escherichia coli): > 80 µM; MIC (Staphylococcus aureus): > 80 µM
CC[C@H](C)[C@H](NC(=O)[C@H](CCCCN)NC(=O)[C@@H]1CCCN1C(=O)[C@@H](NC(=O)[C@H](CC(C)C)NC(=O)[C@H](C)NC(=O)[C@H](Cc1ccccc1)NC(=O)[C@H](Cc1ccccc1)NC(=O)CN)[C@@H](C)CC)C(=O)N[C@H](C(=O)N[C@@H](CO)C(=O)N[C@@H](CO)C(=O)N1CCC[C@H]1C(=O)N[C@@H](CC(C)C)C(=O)N[C@@H](Cc1ccccc1)C(=O)N[C@@H](CCCCN)C(=O)N[C@H](C(=O)N[C@@H](CC(C)C)C(N)=O)[C@@H](C)O)[C@@H](C)CC [GFFALIPKIISSPLFKTL] |  |  |  | MIC (Escherichia coli): 17.1 µM (≈ 34 µg/mL)
CC[C@H](C)[C@H](NC(=O)[C@H](CCCN=C(N)N)NC(=O)[C@H](CCCCN)NC(=O)[C@H](CC(C)C)NC(=O)[C@H](CC(C)C)NC(=O)CN)C(=O)N[C@@H](CCCCN)C(=O)N[C@H](C(=O)N[C@@H](C)C(=O)N[C@@H](CC(C)C)C(N)=O)[C@@H](C)O [GLLKRIKTAL] | 44 (≈ 49 µg/mL) | > 27.9 |  | 
CSCC[C@H](NC(=O)[C@H](CCCCN)NC(=O)[C@H](CCCCN)NC(=O)[C@H](CCCCN)NC(=O)[C@H](CCCN=C(N)N)NC(=O)[C@H](CCCN=C(N)N)NC(=O)[C@H](Cc1ccc(O)cc1)NC(=O)[C@@H](N)CCCN=C(N)N)C(=O)N[C@@H](CCCCN)C(=O)N[C@@H](CCCCN)C(=O)N[C@@H](C)C(N)=O [RYRRKKKMKKA] | > 100 |  | > 100 | 
CC[C@H](C)[C@H](NC(=O)[C@H](C)NC(=O)[C@H](CCCCN)NC(=O)[C@H](CC(C)C)NC(=O)[C@H](CC(C)C)NC(=O)CN)C(=O)N[C@@H](CCCCN)C(=O)N[C@H](C(=O)N[C@@H](CC(C)C)C(=O)N[C@@H](CC(C)C)C(N)=O)[C@@H](C)O [GLLKAIKTLL] | 4.68 (≈ 5 µg/mL) | 9.35 (≈ 9.99 µg/mL) |  | 
CC[C@H](C)[C@H](NC(=O)[C@H](Cc1ccc(O)cc1)NC(=O)[C@H](CCC(N)=O)NC(=O)[C@H](CC(C)C)NC(=O)[C@H](C)NC(=O)[C@H](CCCCN)NC(=O)[C@H](CCCCN)NC(=O)[C@H](CCSC)NC(=O)[C@H](CCCCN)NC(=O)[C@@H](N)CCCCN)C(=O)N[C@@H](CCCCN)C(=O)N[C@@H](CC(C)C)C(=O)N[C@@H](CC(C)C)C(=O)N[C@@H](CCCCN)C(=O)N[C@@H](CCC(=O)O)C(N)=O [KKMKKALQYIKLLKE] | > 100 |  | > 100 | 
CC[C@H](C)[C@H](NC(=O)[C@H](CCCCN)NC(=O)[C@H](CC(C)C)NC(=O)CNC(=O)[C@H](C)NC(=O)[C@H](CCCCN)NC(=O)[C@H](CC(C)C)NC(=O)[C@H](C)NC(=O)[C@H](CCCCN)NC(=O)CNC(=O)[C@H](CC(C)C)NC(=O)[C@H](Cc1ccccc1)NC(=O)[C@H](CO)NC(=O)[C@H](C)NC(=O)[C@H](CC(C)C)NC(=O)CN)C(=O)NCC(=O)N[C@@H](CO)C(=O)N[C@@H](Cc1cnc[nH]1)C(=O)N[C@@H](CC(C)C)C(=O)N[C@@H](CC(C)C)C(=O)NCC(=O)NCC(=O)N[C@@H](C)C(=O)N1CCC[C@H]1C(=O)N[C@@H](CCC(N)=O)C(=O)N[C@@H](CCC(N)=O)C(=O)O [GLASFLGKALKAGLKIGSHLLGGAPQQ] |  |  |  | MIC (Escherichia coli): 25 µM (≈ 65.8 µg/mL); MIC (Staphylococcus aureus): 6 µM (≈ 15.8 µg/mL)
CC(C)C[C@H](NC(=O)[C@H](CCCCN)NC(=O)CNC(=O)[C@@H](N)CO)C(=O)N[C@@H](CS)C(=O)N[C@@H](CS)C(=O)N[C@@H](CCCN=C(N)N)C(=O)N[C@@H](CCCN=C(N)N)C(=O)N[C@@H](CCCCN)C(=O)N[C@@H](CCCCN)C(N)=O [SGKLCCRRKK] |  | > 100 | > 100 | 
CC[C@H](C)[C@H](NC(=O)[C@H](Cc1ccccc1)NC(=O)[C@H](CCCCN)NC(=O)[C@H](CC(C)C)NC(=O)[C@H](CC(C)C)NC(=O)CN)C(=O)N[C@@H](CCCCN)C(=O)N[C@H](C(=O)N[C@@H](CC(C)C)C(=O)N[C@@H](CC(C)C)C(N)=O)[C@@H](C)O [GLLKFIKTLL] | 1.75 (≈ 2 µg/mL) | 1.75 (≈ 2 µg/mL) |  | 
CC(C)C[C@H](NC(=O)[C@H](CO)NC(=O)[C@@H](N)CCCCN)C(=O)N[C@@H](CCCN=C(N)N)C(=O)N[C@@H](CCCN=C(N)N)C(=O)N[C@H](C(=O)N[C@@H](Cc1c[nH]c2ccccc12)C(=O)N[C@@H](CCCN=C(N)N)C(=O)N[C@@H](CO)C(=O)N[C@@H](Cc1c[nH]c2ccccc12)C(=O)N[C@@H](CCCN=C(N)N)C(N)=O)C(C)C [KSLRRVWRSWR] | 30 (≈ 45.9 µg/mL) | 60 (≈ 91.7 µg/mL) | 40 (≈ 61.2 µg/mL) | 
CC(C)C[C@H](NC(=O)[C@H](Cc1ccccc1)NC(=O)[C@@H]1CCCN1C(=O)[C@H](Cc1ccc(O)cc1)NC(=O)[C@H](Cc1ccc(O)cc1)NC(=O)[C@H](Cc1ccc(O)cc1)NC(=O)[C@@H]1CCCN1C(=O)[C@H](Cc1ccccc1)NC(=O)[C@H](CCCN=C(N)N)NC(=O)[C@H](CCCN=C(N)N)NC(=O)[C@@H](N)C(C)C)C(=O)N[C@@H](CCCN=C(N)N)C(=O)N[C@@H](CCCN=C(N)N)C(N)=O [VRRFPYYYPFLRR] | 22.6 (≈ 41.5 µg/mL) |  |  | MIC (Escherichia coli): 27.3 µM (≈ 50 µg/mL); MIC (Staphylococcus aureus): 12.2 µM (≈ 22.3 µg/mL)
CC(C)C[C@H](NC(=O)[C@H](Cc1ccccc1)NC(=O)[C@H](C)NC(=O)[C@H](Cc1c[nH]c2ccccc12)NC(=O)[C@H](Cc1c[nH]c2ccccc12)NC(=O)[C@H](Cc1c[nH]c2ccccc12)NC(=O)[C@H](C)NC(=O)[C@H](Cc1ccccc1)NC(=O)[C@H](CCCCN)NC(=O)[C@H](CCCCN)NC(=O)[C@@H](N)C(C)C)C(=O)N[C@@H](CCCCN)C(=O)N[C@@H](CCCCN)C(N)=O [VKKFAWWWAFLKK] | 2 (≈ 3.47 µg/mL) |  |  | 
CC[C@H](C)[C@H](NC(=O)CN)C(=O)N[C@@H](CC(C)C)C(=O)N[C@@H](CO)C(=O)N[C@@H](CO)C(=O)N[C@@H](Cc1ccccc1)C(=O)N[C@@H](CCCCN)C(=O)NCC(=O)N[C@H](C(=O)N[C@@H](C)C(=O)N[C@@H](CCCCN)C(=O)NCC(=O)N[C@H](C(=O)N[C@@H](C)C(=O)N[C@@H](CCCCN)C(=O)N[C@@H](CC(=O)O)C(=O)N[C@@H](CC(C)C)C(=O)N[C@@H](C)C(=O)NCC(=O)N[C@@H](CCCCN)C(=O)N[C@@H](CC(C)C)C(=O)N[C@@H](CC(C)C)C(=O)N[C@@H](CCC(=O)O)C(=O)N[C@H](C(=O)N[C@@H](CC(C)C)C(=O)N[C@@H](CCCCN)C(N)=O)[C@@H](C)O)C(C)C)C(C)C [GILSSFKGVAKGVAKDLAGKLLETLK] | 6.3 (≈ 16.7 µg/mL) |  |  | 
CC[C@H](C)[C@H](NC(=O)CNC(=O)[C@H](CO)NC(=O)[C@H](CCCN=C(N)N)NC(=O)[C@@H](NC(=O)CNC(=O)[C@H](Cc1c[nH]c2ccccc12)NC(=O)[C@H](CC(C)C)NC(=O)[C@H](CC(=O)O)NC(=O)[C@@H](NC(=O)[C@H](CCCCN)NC(=O)[C@H](CC(C)C)NC(=O)[C@@H](N)CCC(N)=O)C(C)C)[C@@H](C)O)C(N)=O [QLKVDLWGTRSGI] | > 100 | > 100 | > 100 | 
CC[C@H](C)[C@H](NC(=O)CN)C(=O)N[C@@H](CCCCN)C(=O)N[C@@H](CCCCN)C(=O)N[C@@H](Cc1ccccc1)C(=O)N[C@@H](CC(C)C)C(=O)N[C@@H](Cc1cnc[nH]1)C(=O)N[C@H](C(=O)N[C@H](C(=O)N[C@@H](Cc1c[nH]c2ccccc12)C(=O)N[C@@H](CCCCN)C(=O)N[C@@H](Cc1ccccc1)C(=O)N[C@H](C(=O)N[C@@H](CCCCN)C(=O)N[C@@H](C)C(=O)N[C@@H](Cc1ccccc1)C(=O)N[C@H](C(=O)NCC(=O)N[C@@H](CCC(=O)O)C(=O)N[C@H](C(=O)N[C@@H](CCSC)C(=O)N[C@@H](CC(N)=O)C(=O)N[C@@H](CO)C(=O)O)[C@@H](C)CC)C(C)C)[C@@H](C)CC)[C@@H](C)CC)[C@@H](C)CC [GIKKFLHIIWKFIKAFVGEIMNS] | 16 (≈ 43.5 µg/mL) |  |  | 
CC[C@H](C)[C@H](NC(=O)[C@H](CCCN=C(N)N)NC(=O)[C@H](CCCCN)NC(=O)[C@H](CC(C)C)NC(=O)[C@H](CC(C)C)NC(=O)CN)C(=O)N[C@@H](CCCCN)C(=O)N[C@@H](Cc1ccccc1)C(=O)N[C@@H](CC(C)C)C(=O)N[C@@H](CC(C)C)C(N)=O [GLLKRIKFLL] | 6.66 (≈ 7.99 µg/mL) | 6.66 (≈ 7.99 µg/mL) |  | 
CC[C@H](C)[C@H](NC(=O)CNC(=O)[C@H](CC(C)C)NC(=O)[C@@H](NC(=O)[C@@H](N)Cc1ccc(O)cc1)[C@@H](C)O)C(=O)N[C@@H](CCCCN)C(=O)N[C@H](C(=O)N[C@@H](CC(C)C)C(=O)N[C@@H](Cc1c[nH]c2ccccc12)C(=O)N[C@@H](CO)C(=O)N[C@@H](C)C(=O)N[C@@H](Cc1ccc(O)cc1)C(=O)N[C@@H](CCCCN)C(=O)N[C@@H](Cc1cnc[nH]1)C(=O)O)[C@@H](C)CC [YTLGIKILWSAYKH] |  |  |  | MIC [4]: 50 µM (≈ 84.7 µg/mL)
CC[C@H](C)[C@H](NC(=O)[C@H](CC(=O)O)NC(=O)[C@@H](NC(=O)[C@@H](NC(=O)CN)C(C)C)C(C)C)C(=O)N[C@@H](CC(C)C)C(=O)N[C@@H](CCCCN)C(=O)NCC(=O)N[C@@H](C)C(=O)N[C@@H](C)C(=O)N[C@@H](CCCCN)C(=O)N[C@@H](CC(=O)O)C(=O)N[C@@H](CC(C)C)C(=O)N[C@@H](C)C(=O)NCC(=O)N[C@@H](Cc1cnc[nH]1)C(=O)N[C@@H](CC(C)C)C(=O)N[C@@H](C)C(=O)N[C@@H](CO)C(=O)N[C@@H](CCCCN)C(=O)N[C@H](C(=O)O)C(C)C [GVVDILKGAAKDLAGHLASKV] | 60.6 (≈ 125 µg/mL) |  |  | 
NCCCC[C@H](NC(=O)[C@H](CCCCN)NC(=O)[C@H](CCCCN)NC(=O)[C@H](CCCN=C(N)N)NC(=O)[C@H](CCCN=C(N)N)NC(=O)[C@H](Cc1ccc(O)cc1)NC(=O)[C@@H](N)CCCN=C(N)N)C(N)=O [RYRRKKK] | > 100 |  | > 100 | 
